This data set in a line: Aggregation of SeS2 on contact with aqueous medium. Type of data set: physicochemical. The text has this: Contacting SeS2 with aqueous medium causes immediate and spontaneous aggregation, such that SeS2 particles with an average size of 5 to 10 microns will form large aggregates of 50 to 500 microns average size. […] Surfactants and various suspending agents are required to stabilize SeS2 suspension in liquid and semi-solid dosage forms in order to enable its topical application.
Selenium disulfide forms agglomerates under aqueous conditions. Contacting selenium disulfide with aqueous medium causes immediate and spontaneous aggregation, causing selenium disulfide particles, with an initial average diameter of 5 to 10 μm, to aggregate into large clumps of 50 to 500 μm average diameter.

As to `S=[Se]=S` [SeS2, selenium disulfide], for the setting “SeS2 particles of initial average size 5 to 10 microns”, the “Average size of aggregates formed on contact with aqueous medium” value fell in the range of 50 to 500 microns. Besides, the “Average diameter of clumps formed on contact with aqueous medium” value (initial average diameter 5 to 10 μm) is listed as 50 to 500 μm.

The values above are taken from US12458661B2, “Selenium disulfide compositions for use in treating meibomian gland dysfunction” (priority 2016, dated 2025).
